Test results published in publication PMC9862023, “Isosarcophytoxide Derivatives with a 2,5-Dihydrofuran Moiety from the Soft Coral Sarcophyton cinereum” (Molecules, 2023).

Legend:
[1] = test system: human small cell lung cancer (H1688) cells; assay: Cytotoxicity MTT assay, H1688 cell line; format: cell-based; conditions: 37 °C, 24 h, read-out: cytotoxicity toward H1688 cell line, IC50
Procedure: The cytotoxicities of compounds were analyzed by using the human small cell lung cancer H1688 cell line and the 3-(4,5-dimethylthiazol-2-yl)-2,5-diphenyl tetrazolium bromide (MTT, Sigma-Aldrich, St. Louis, MO, USA) assay at 37 °C for 24 h.

[2] = Cell viability of dendritic cells (CCK-8); format: cell-based, murine; conditions: mouse, dendritic cells (DCs), CCK-8, 37 °C, read-out: cytotoxicity against DCs, IC50
Procedure: The DCs (1 × 10^6) were treated with tested compounds (100 μg/mL) and cultured at 37 °C for 24 h. Cytotoxicity was examined using a Cell Counting Kit-8 (CCK-8; Dojindo Molecular Technologies, Inc., Kumamoto, Japan) according to the manufacturer’s protocol. The absorbance was recorded on a microplate reader (Tecan Group Ltd., Männedorf, Switzerland) at a wavelength of 450 nm.

[3] = test system: TNF-α expression in LPS-stimulated murine dendritic cells (DCs); assay: TNF-α expression by LPS-induced DCs (ELISA); format: cell-based; conditions: Mus musculus, Dendritic cell, 100 ng/mL LPS, 24 h, read-out: inhibition of TNF-α expression in LPS-stimulated DCs, IC50
Procedure: The TNF-α expressions of LPS-induced DCs were measured by enzyme-link immunosorbent assay (ELISA), in the same way as the previously reported method. The DCs were treated with 100 ng/mL lipopolysaccharide (LPS) and the isolated compounds for 24 h. The optical density of the production of TNF-α was measured at 450 nm by the ELISA reader.

| IC50 [3] | Structure (SMILES) | IC50 [1] | IC50 at 24 h [2] |
| --- | --- | --- | --- |
| – | COC1OC2C=C(C)CCC=C(C)CCC3OC3(C)CCC2=C1C (stereo not drawn) [compound 3, 16β-Methoxyisosarcophytoxide] | 27.5 ± 6.4 µM | – |
| – | C=C[C@@](C)(Cl)[C@@H](Cl)/C=C/C(=C/Cl)C(Cl)Cl (relative stereo) [(3R*,4S*,5E,7Z)-7-dichlorothyl-3,4,8-trichloro-3-methylocta-1,5,7-triene] | 4.2 ± 2.1 µM | – |
| 23.1 ± 5.2 µM | O=c1c(O)c(-c2ccc(O)c(O)c2)oc2cc(O)cc(O)c12 [Quercetin] | – | 78.8 ± 7.3 µM |
| – | COC1OC2C=C(C)CCC=C(C)CCC3OC3(C)CCC2=C1C (stereo not drawn) [compound 4, 16α-Methoxyisosarcophytoxide] | 85.8 µM | – |
